Results on 3 molecules are retold here after the NIST ThermoML archive (doi:10.1021/je060476j).

For series [1] the following is noted: Liquid, Ebulliometric method (Recirculating still).
Series [2] is described as follows: refractive index (Na D-line) (dimensionless). The following applies: 298.15 K; 101.33 kPa; Liquid; Standard Abbe refractometry.

± gives the expanded uncertainty stated by the source.

Take `CCC(C)(C)O` [2-methylbutan-2-ol]: the vapor or sublimation pressure (usually the equilibrium pressure above the liquid or solid) in series [1] (375.14 K) came out at 101.3 ± 0.6 kPa. Moreover, in series [2], the refractive index (commonly the speed of light in vacuum divided by its phase velocity in the sample) worked out at 1.4018 ± 0.0007.

As for `CO` [methanol], the “vapor or sublimation pressure” value in series [1] (337.68 K) is reported as 101.3 ± 0.6 kPa. The refractive index in series [2] is reported as 1.3261 ± 0.0007.

As to `CC(C)O` [propan-2-ol], the “vapor or sublimation pressure” value in series [1] (355.5 K) was 101.3 ± 0.6 kPa. For the same molecule, the refractive index in series [2] came to 1.375 ± 0.0007.
